Assay: xn = mol fraction of the nth substance listed

O=C([O-])C1=NN(c2ccc(S(=O)(=O)[O-])cc2)C(=O)C1N=Nc1ccc(S(=O)(=O)[O-])cc1.[Na+].[Na+].[Na+] (stereo not given) + C[N+](C)(C)Cc1ccccc1.[Cl-] + O
electrical conductivity [S/m], 101.3 kPa, frequency 0.001 MHz
Settings | 298.15 K | 308.15 K | 318.15 K
x1 = 0.0001802, x2 = 1.802e-05 | 0.132 | 0.158 | 0.197
x1 = 0.0001803, x2 = 5.405e-05 | 0.142 | 0.177 | 0.213
x1 = 0.0001803, x2 = 9.008e-05 | 0.168 | 0.187 | 0.228
x1 = 0.0004504, x2 = 1.801e-05 | 0.231 | 0.276 | 0.355
x1 = 0.0004505, x2 = 5.403e-05 | 0.254 | 0.317 | 0.388
x1 = 0.0004507, x2 = 9.005e-05 | 0.303 | 0.331 | 0.413
x1 = 0.0007204, x2 = 1.801e-05 | 0.331 | 0.392 | 0.498
x1 = 0.0007206, x2 = 5.402e-05 | 0.359 | 0.447 | 0.535
x1 = 0.0007209, x2 = 9.003e-05 | 0.419 | 0.477 | 0.558
x1 = 0.0009903, x2 = 1.8e-05 | 0.421 | 0.512 | 0.641
x1 = 0.0009906, x2 = 5.4e-05 | 0.463 | 0.588 | 0.677
x1 = 0.0009909, x2 = 9e-05 | 0.57 | 0.614 | 0.723
x1 = 0.00126, x2 = 1.8e-05 | 0.519 | 0.638 | 0.777
x1 = 0.00126, x2 = 5.399e-05 | 0.583 | 0.716 | 0.826
x1 = 0.001261, x2 = 8.998e-05 | 0.684 | 0.739 | 0.863
x1 = 0.00153, x2 = 1.799e-05 | 0.641 | 0.753 | 0.915
x1 = 0.00153, x2 = 5.397e-05 | 0.705 | 0.841 | 0.972
x1 = 0.001531, x2 = 8.995e-05 | 0.812 | 0.88 | 1.01

viscosity [mPa·s], 101.3 kPa
Settings | 298.15 K | 308.15 K | 318.15 K
x1 = 0.0001802, x2 = 1.802e-05 | 0.905 | 0.747 | 0.629
x1 = 0.0001803, x2 = 5.405e-05 | 0.923 | 0.769 | 0.646
x1 = 0.0001803, x2 = 9.008e-05 | 0.941 | 0.789 | 0.666
x1 = 0.0004504, x2 = 1.801e-05 | 0.923 | 0.764 | 0.644
x1 = 0.0004505, x2 = 5.403e-05 | 0.944 | 0.788 | 0.664
x1 = 0.0004507, x2 = 9.005e-05 | 0.962 | 0.809 | 0.685
x1 = 0.0007204, x2 = 1.801e-05 | 0.938 | 0.778 | 0.658
x1 = 0.0007206, x2 = 5.402e-05 | 0.962 | 0.803 | 0.679
x1 = 0.0007209, x2 = 9.003e-05 | 0.983 | 0.826 | 0.701
x1 = 0.0009903, x2 = 1.8e-05 | 0.952 | 0.791 | 0.67
x1 = 0.0009906, x2 = 5.4e-05 | 0.977 | 0.818 | 0.693
x1 = 0.0009909, x2 = 9e-05 | 1 | 0.842 | 0.717
x1 = 0.00126, x2 = 1.8e-05 | 0.964 | 0.803 | 0.681
x1 = 0.00126, x2 = 5.399e-05 | 0.992 | 0.832 | 0.707
x1 = 0.001261, x2 = 8.998e-05 | 1.015 | 0.858 | 0.731
x1 = 0.00153, x2 = 1.799e-05 | 0.977 | 0.815 | 0.693
x1 = 0.00153, x2 = 5.397e-05 | 1.007 | 0.847 | 0.72
x1 = 0.001531, x2 = 8.995e-05 | 1.032 | 0.873 | 0.746

CO + C[N+](C)(CCCS(=O)(=O)O)C1CCCCC1.Cc1ccc(S(=O)(=O)[O-])cc1
101 kPa, x2 = 0
Settings | viscosity [mPa·s]
303.15 K | 0.5044
308.15 K | 0.4775
313.15 K | 0.4515
318.15 K | 0.4244
323.15 K | 0.4033
328.15 K | 0.3883

CCCC[n+]1ccn(C)c1.[I-] + F[B-](F)(F)F.[Li+]
Settings | electrical conductivity [S/m]
308.15 K, 101 kPa, x2 = 0 | 0.0286

CC[n+]1ccn(C)c1.O=S(=O)([N-]S(=O)(=O)C(F)(F)F)C(F)(F)F + F[B-](F)(F)F.[Li+]
101 kPa, x1 = 1
Settings | electrical conductivity [S/m]
288.15 K | 0.611
298.15 K | 0.883
333.15 K | 2.18

CC[n+]1ccn(C)c1.O=S(=O)([N-]S(=O)(=O)C(F)(F)F)C(F)(F)F + F[P-](F)(F)(F)(F)F.[Li+]
101 kPa, x1 = 1
Settings | electrical conductivity [S/m]
288.15 K | 0.611
298.15 K | 0.883
333.15 K | 2.18

C[N+](CCO)(CCO)CCOCCO.[Cl-] + NC(N)=O
100 kPa, x1 = 0.5
Settings | viscosity [mPa·s]
328.15 K | 560
343.15 K | 221
348.15 K | 169
353.15 K | 131

CC(O)C(=O)[O-].C[N+](C)(C)CCO + O
101 kPa
Settings | viscosity [mPa·s]
293.15 K, x2 = 0.0272 | 5800
293.15 K, x2 = 0.5026 | 174.9
293.15 K, x2 = 0.7993 | 26.26
293.15 K, x2 = 0.8998 | 7.312
298.15 K, x2 = 0 | 559
298.15 K, x2 = 0.4038 | 187.4
298.15 K, x2 = 0.5858 | 87.96
298.15 K, x2 = 0.7993 | 20.92
303.15 K, x2 = 0.0992 | 308.5
308.15 K, x2 = 0.3008 | 144.2
308.15 K, x2 = 0.8998 | 4.497
313.15 K, x2 = 0.8998 | 3.897
318.15 K, x2 = 0.7993 | 9.616
323.15 K, x2 = 0.701 | 15.61
323.15 K, x2 = 0.7993 | 8.175
328.15 K, x2 = 0.7993 | 7.029
333.15 K, x2 = 0.2048 | 52.54
333.15 K, x2 = 0.3008 | 43.97
333.15 K, x2 = 0.701 | 11.18
348.15 K, x2 = 0.8998 | 1.767
353.15 K, x2 = 0.0992 | 30
353.15 K, x2 = 0.7993 | 3.729
353.15 K, x2 = 0.8998 | 1.614

CCC(=O)[O-].COCCn1cc[n+](C)c1 + O
100 kPa
Settings | electrical conductivity [S/m] | viscosity [mPa·s]
288.15 K, x1 = 0.8302 | 0.318 | 81.8
288.15 K, x1 = 0.8877 | 0.241 | 96.6
288.15 K, x1 = 1 | 0.109 | 125.5
293.15 K, x1 = 0.9474 | 0.222 | 84.9
298.15 K, x1 = 0.8302 | 0.426 | 46.94
298.15 K, x1 = 0.9474 | 0.285 | 63.84
298.15 K, x1 = 1 | 0.228 | 70.11
303.15 K, x1 = 0.8579 | 0.483 | 39.8
313.15 K, x1 = 0.9474 | 0.588 | 31.35
318.15 K, x1 = 0.8579 | 0.839 | 20
318.15 K, x1 = 0.9474 | 0.726 | 24.42

CCCCCC[n+]1ccccc1.N#C[N-]C#N + O
100 kPa
Settings | electrical conductivity [S/m] | viscosity [mPa·s]
298.15 K, x1 = 0.9308 | – | 50.4
298.15 K, x1 = 0.9582 | 0.494 | –
298.15 K, x1 = 0.9762 | 0.477 | –
298.15 K, x2 = 0.01463 | – | 56.3
303.15 K, x1 = 0.9663 | – | 43.33
308.15 K, x1 = 0.924 | 0.796 | –
318.15 K, x1 = 0.9146 | – | 22.52
318.15 K, x1 = 0.9409 | 1.09 | –
318.15 K, x1 = 0.9663 | – | 24.43
328.15 K, x1 = 0.9146 | – | 15.96
328.15 K, x1 = 0.924 | 1.47 | –
328.15 K, x1 = 0.9487 | – | 16.85
328.15 K, x1 = 0.9762 | 1.35 | –
338.15 K, x1 = 0.9075 | 1.94 | –
338.15 K, x1 = 0.9146 | – | 12.16
338.15 K, x1 = 0.9409 | 1.85 | –
338.15 K, x2 = 0.01463 | – | 13.8

CCCC[n+]1cccc(C)c1.N#C[N-]C#N + O
298.15 K, 101 kPa
Settings | electrical conductivity [S/m]
x1 = 0.0001676 | 0.072
x1 = 0.0003333 | 0.132
x1 = 0.0004971 | 0.18
x1 = 0.0007203 | 0.265
x1 = 0.0009901 | 0.347
x1 = 0.001245 | 0.42
x1 = 0.001513 | 0.502
x1 = 0.001757 | 0.558
x1 = 0.002014 | 0.629
x1 = 0.002115 | 0.655
x1 = 0.002344 | 0.698
x1 = 0.002438 | 0.725
x1 = 0.002706 | 0.785
x1 = 0.002941 | 0.824
x1 = 0.00295 | 0.83
x1 = 0.00329 | 0.889
x1 = 0.003543 | 0.944

CC[n+]1ccn(C)c1.COP(=O)([O-])OC + O
101 kPa
Settings | viscosity [mPa·s]
293.15 K, x2 = 0.198 | 292
298.15 K, x2 = 0.198 | 212
303.15 K, x2 = 0.198 | 157.4
318.15 K, x2 = 0.198 | 73.7
318.15 K, x2 = 0.399 | 52.73
318.15 K, x2 = 0.799 | 11.57
328.15 K, x2 = 0.399 | 35.56
333.15 K, x2 = 0.198 | 40.33

CC[n+]1ccn(C)c1.F[B-](F)(F)F + O
298 K, 101 kPa
Settings | electrical conductivity [S/m]
x2 = 0.78 | 8.27
x2 = 0.84 | 8.63

CC[n+]1ccn(C)c1.O=S(=O)([N-]S(=O)(=O)C(F)(F)F)C(F)(F)F + O
Settings | electrical conductivity [S/m] | viscosity [mPa·s]
297.55 K, 101 kPa, x1 = 0.889 | – | 26
297.85 K, 101 kPa, x2 = 0.205 | 1.22 | –
298 K, 101 kPa, x2 = 0.02 | – | 32.3
298 K, 101 kPa, x2 = 0.0629 | – | 30.8
298 K, 101 kPa, x2 = 0.199 | – | 25.4
298 K, 101 kPa, x2 = 0.227 | – | 25.2
298.15 K, 101 kPa, x2 = 0.205 | 1.3 | –
299.15 K, 101 kPa, x2 = 0.205 | 1.32 | –
300.35 K, 101 kPa, x2 = 0.205 | 1.38 | –
302.15 K, 101 kPa, x2 = 0.205 | 1.45 | –
302.85 K, 101 kPa, x2 = 0.205 | 1.51 | –
303.15 K, 100 kPa, x2 = 0.298 | – | 16.23
303.95 K, 101 kPa, x2 = 0.205 | 1.61 | –
304.95 K, 101 kPa, x2 = 0.205 | 1.66 | –
313.15 K, 100 kPa, x2 = 0.298 | – | 12.29
333.15 K, 100 kPa, x2 = 0.298 | – | 7.749

O=C[O-].OCC[NH2+]CCO + O
100 kPa
Settings | viscosity [mPa·s]
293.15 K, x1 = 0.075 | 3.25
293.15 K, x1 = 0.3185 | 36.2
293.15 K, x1 = 1 | 471
303.15 K, x1 = 0.0292 | 1.34
303.15 K, x1 = 0.7987 | 172
313.15 K, x1 = 0.075 | 1.99
333.15 K, x1 = 0.3185 | 8.4
333.15 K, x1 = 0.7987 | 40.4
343.15 K, x1 = 0.5932 | 15.3
343.15 K, x1 = 1 | 35.9
